Results as given in the NIST ThermoML archive (doi:10.1016/j.fluid.2011.03.005).
± gives the expanded uncertainty stated by the source.

Legend:
[1] = Molar enthalpy of transition or fusion; details: Crystal; DSC
[2] = for mass density: 101.33 kPa, Liquid, Vibrating tube method

For CCC[N+]1(C)CCCCC1.O=S(=O)([N-]S(=O)(=O)C(F)(F)F)C(F)(F)F, the “Molar enthalpy of transition or fusion” value [1] was 6.12 ± 0.167 kcal/mol, the mass density ([2]; 293.15 K) was 1414.1 ± 0.6 kg/m3 and the mass density ([2]; 298.15 K) was 1409.6 ± 0.6 kg/m3. It also gave a mass density ([2]; 303.15 K) of 1405.3 ± 0.6 kg/m3, a mass density ([2]; 308.15 K) of 1401 ± 0.6 kg/m3 and a mass density ([2]; 313.15 K) of 1396.6 ± 0.6 kg/m3. For the same compound, the mass density ([2]; 318.15 K) was 1392.3 ± 0.6 kg/m3, the mass density ([2]; 323.15 K) was 1388 ± 0.6 kg/m3 and the mass density ([2]; 328.15 K) was 1383.7 ± 0.6 kg/m3. The mass density ([2]; 333.15 K) was 1379.4 ± 0.6 kg/m3, the mass density ([2]; 338.15 K) was 1375.1 ± 0.6 kg/m3 and the mass density ([2]; 343.15 K) was 1370.9 ± 0.6 kg/m3. The mass density ([2]; 348.15 K) was 1366.6 ± 0.6 kg/m3, the mass density ([2]; 353.15 K) was 1362.3 ± 0.5 kg/m3 and the mass density ([2]; 358.15 K) was 1358.1 ± 0.5 kg/m3. For the same compound, the mass density ([2]; 363.15 K) was 1353.9 ± 0.5 kg/m3 and the Normal melting temperature ([2]; Crystal, DTA) was 12.6 ± 0.4 °C.
